Holding throughout (assay): Kinase selectivity, DiscoverX scanMAX Kinase assay panel (% control)
Holding throughout (type): binding

For test [1], the target named is T1, kinases of the scanMAX Kinase assay panel (Homo sapiens, UniProt O00444).
T1 construct: purchased DiscoverX Co. (contract measurement) scanMAX Kinase assay panel
T1 sequence (O00444 1-970): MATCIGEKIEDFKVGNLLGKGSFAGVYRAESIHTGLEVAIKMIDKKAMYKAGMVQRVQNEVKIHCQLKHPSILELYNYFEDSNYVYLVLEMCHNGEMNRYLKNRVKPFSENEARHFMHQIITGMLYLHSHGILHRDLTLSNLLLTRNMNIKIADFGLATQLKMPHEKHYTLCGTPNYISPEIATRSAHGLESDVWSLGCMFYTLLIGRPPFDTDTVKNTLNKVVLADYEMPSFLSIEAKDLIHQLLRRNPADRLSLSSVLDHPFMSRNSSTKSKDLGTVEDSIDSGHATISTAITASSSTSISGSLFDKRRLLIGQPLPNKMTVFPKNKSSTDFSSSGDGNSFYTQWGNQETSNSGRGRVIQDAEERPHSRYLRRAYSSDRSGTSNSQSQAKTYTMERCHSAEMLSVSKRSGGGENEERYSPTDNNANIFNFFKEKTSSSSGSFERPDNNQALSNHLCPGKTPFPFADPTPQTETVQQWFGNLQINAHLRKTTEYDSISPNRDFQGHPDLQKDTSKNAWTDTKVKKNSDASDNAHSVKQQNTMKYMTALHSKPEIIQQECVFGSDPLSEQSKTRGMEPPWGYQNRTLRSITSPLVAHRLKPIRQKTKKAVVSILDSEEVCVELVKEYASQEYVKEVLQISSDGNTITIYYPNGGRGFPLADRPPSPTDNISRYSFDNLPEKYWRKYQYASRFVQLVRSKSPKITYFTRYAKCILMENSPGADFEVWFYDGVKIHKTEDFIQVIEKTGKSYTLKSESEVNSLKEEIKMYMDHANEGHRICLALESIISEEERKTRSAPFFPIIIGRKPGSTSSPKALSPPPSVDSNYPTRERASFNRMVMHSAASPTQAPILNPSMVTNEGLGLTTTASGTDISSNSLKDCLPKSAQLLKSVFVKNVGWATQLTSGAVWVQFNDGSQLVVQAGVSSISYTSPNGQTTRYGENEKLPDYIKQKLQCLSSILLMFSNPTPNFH
As to conditions: PLK4; 1 uM. The method, boiled down: (§1)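 A 1 uM DMSO solution of compound was applied across the panel kinases, and results were expressed as % control relative to DMSO (100%) and a positive control (0%).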

Test [2] addresses T2, kinases of the scanMAX Kinase assay panel (Homo sapiens, UniProt Q8IW41).
T2 construct: purchased DiscoverX Co. (contract measurement) scanMAX Kinase assay panel
T2 sequence (Q8IW41 1-473): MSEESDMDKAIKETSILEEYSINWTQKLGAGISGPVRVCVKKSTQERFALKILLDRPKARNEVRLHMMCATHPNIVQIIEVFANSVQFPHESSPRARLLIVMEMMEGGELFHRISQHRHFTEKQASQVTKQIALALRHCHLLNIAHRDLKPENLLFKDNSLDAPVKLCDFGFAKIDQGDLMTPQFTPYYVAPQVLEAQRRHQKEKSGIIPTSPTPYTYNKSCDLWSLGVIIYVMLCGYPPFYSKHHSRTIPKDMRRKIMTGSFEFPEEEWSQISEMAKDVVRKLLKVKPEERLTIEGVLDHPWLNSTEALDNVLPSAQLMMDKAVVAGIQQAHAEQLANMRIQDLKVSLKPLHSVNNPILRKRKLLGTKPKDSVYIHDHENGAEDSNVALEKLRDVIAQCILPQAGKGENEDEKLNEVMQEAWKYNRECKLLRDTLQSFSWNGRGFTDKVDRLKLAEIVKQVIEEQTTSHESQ
As to conditions: MAPKAPK5; 1 uM. The method in brief: as §1

Test [3] addresses T3, kinases of the scanMAX Kinase assay panel (Homo sapiens, UniProt O95747).
T3 construct: purchased DiscoverX Co. (contract measurement) scanMAX Kinase assay panel
As to conditions: OSR1; 1 uM. The method, boiled down:
as §1

Test [4] deals with T4, kinases of the scanMAX Kinase assay panel (Homo sapiens, UniProt Q9H1R3).
T4 construct: purchased DiscoverX Co. (contract measurement) scanMAX Kinase assay panel
T4 sequence (Q9H1R3 whole entry): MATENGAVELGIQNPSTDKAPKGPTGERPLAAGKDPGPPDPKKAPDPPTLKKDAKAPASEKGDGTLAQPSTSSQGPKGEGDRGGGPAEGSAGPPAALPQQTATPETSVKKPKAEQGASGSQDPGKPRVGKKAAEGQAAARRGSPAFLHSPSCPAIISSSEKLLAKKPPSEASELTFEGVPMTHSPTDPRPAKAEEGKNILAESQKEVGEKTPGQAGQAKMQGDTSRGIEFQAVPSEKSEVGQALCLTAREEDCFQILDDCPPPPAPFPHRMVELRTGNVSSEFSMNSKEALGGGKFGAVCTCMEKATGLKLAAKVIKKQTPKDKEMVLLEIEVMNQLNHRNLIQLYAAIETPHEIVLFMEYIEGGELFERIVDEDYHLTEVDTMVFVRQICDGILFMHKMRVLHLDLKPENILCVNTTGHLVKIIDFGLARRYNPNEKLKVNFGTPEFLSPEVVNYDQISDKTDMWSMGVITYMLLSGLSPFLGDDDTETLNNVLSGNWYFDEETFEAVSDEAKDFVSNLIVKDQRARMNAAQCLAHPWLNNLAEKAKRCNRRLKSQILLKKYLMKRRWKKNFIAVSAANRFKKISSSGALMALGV
The following applies: MYLK2; 1 uM. The method, boiled down: as §1

Test [5] deals with T5, kinases of the scanMAX Kinase assay panel (Homo sapiens, UniProt P04049).
T5 construct: purchased DiscoverX Co. (contract measurement) scanMAX Kinase assay panel
T5 sequence (P04049 whole entry): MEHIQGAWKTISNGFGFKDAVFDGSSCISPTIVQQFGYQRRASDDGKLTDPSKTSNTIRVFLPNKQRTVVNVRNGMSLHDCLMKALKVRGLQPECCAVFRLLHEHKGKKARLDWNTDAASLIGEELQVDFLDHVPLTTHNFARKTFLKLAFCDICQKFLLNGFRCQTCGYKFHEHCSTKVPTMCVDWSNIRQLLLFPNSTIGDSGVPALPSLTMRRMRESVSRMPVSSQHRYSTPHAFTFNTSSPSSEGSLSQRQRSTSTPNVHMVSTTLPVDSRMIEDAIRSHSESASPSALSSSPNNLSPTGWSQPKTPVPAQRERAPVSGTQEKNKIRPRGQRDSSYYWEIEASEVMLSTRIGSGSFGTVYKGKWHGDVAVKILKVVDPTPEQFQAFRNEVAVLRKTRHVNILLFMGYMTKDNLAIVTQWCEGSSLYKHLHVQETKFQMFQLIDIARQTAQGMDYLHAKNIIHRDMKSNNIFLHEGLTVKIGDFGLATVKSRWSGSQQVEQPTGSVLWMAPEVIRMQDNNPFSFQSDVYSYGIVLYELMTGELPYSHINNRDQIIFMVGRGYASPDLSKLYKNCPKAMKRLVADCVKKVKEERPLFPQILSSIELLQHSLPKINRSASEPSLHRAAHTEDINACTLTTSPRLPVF
The following applies: RAF1; 1 uM. The method in brief: as §1

Test [6] concerns the target T6, kinases of the scanMAX Kinase assay panel (Homo sapiens, UniProt Q13546).
T6 construct: purchased DiscoverX Co. (contract measurement) scanMAX Kinase assay panel
T6 sequence (Q13546 1-671): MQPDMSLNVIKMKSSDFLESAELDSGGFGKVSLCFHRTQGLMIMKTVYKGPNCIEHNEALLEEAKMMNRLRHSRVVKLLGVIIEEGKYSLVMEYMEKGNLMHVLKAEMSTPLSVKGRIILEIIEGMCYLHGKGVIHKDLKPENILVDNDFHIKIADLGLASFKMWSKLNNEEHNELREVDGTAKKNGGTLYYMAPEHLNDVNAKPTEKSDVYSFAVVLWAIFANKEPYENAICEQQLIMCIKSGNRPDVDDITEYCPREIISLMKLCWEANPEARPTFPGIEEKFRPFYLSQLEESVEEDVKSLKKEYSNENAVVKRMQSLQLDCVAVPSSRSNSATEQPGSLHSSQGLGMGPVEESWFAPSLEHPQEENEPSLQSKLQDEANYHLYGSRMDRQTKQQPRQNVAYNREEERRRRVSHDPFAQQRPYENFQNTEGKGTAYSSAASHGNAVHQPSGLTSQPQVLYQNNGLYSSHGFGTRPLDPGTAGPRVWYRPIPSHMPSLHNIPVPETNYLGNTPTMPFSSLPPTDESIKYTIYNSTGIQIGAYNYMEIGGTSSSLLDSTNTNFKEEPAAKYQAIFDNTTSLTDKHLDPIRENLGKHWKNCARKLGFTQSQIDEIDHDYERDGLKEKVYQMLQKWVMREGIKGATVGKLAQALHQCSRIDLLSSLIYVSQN
The following applies: kinase RIPK1; 1 uM in DMSO. The method in brief: as §1

Experimental findings from patent US11208412B2 (DAEGU-GYEONGBUK MEDICAL INNOVATION FOUNDATION, priority 2017, dated 2021) are described below.

T3 sequence (O95747 whole entry): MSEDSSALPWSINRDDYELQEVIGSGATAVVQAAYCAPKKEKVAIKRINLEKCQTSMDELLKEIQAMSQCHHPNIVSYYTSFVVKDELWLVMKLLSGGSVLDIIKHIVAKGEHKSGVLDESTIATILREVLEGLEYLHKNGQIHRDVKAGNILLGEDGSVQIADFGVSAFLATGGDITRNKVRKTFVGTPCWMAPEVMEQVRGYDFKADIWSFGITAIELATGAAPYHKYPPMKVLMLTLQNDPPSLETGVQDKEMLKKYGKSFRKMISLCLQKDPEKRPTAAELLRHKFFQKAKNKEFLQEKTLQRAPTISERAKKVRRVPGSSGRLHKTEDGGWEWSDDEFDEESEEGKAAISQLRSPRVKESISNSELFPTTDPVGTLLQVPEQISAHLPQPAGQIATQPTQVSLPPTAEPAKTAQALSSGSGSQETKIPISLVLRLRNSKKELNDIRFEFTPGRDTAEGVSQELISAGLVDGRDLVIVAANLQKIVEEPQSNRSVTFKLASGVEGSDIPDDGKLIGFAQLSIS

For the compound `CNc1nc(Nc2ccc(C(=O)N3CCOCC3)cc2OC)nc2[nH]cc(C#N)c12` [Example 1, 2-((2-methoxy-4-(morpholine-4-carbonyl)phenyl)amino)-4-(methylamino)-7H-pyrrolo[2,3-d]pyrimidine-5-carbonitrile], the remaining binding at 1 µM came to 17% in test [1]; 16% in test [2]; 21% in test [3]; 88% in test [4]; 95% in test [5]; 94% in test [6].

For `CC1(Nc2nc(Nc3cnn([C@H]4CCN(C5COC5)C[C@@H]4F)c3Cl)nc3[nH]cc(C#N)c23)CC1` [Example 52, 2-((5-chloro-1-((3S,4S)-3-fluoro-1-(oxetane-3-yl)piperidine-4-yl)-1H-pyrazole-4-yl)amino)((1-methylcyclopropyl)amino)-7H-pyrrolo[2,3-d]pyrimidine-5-carbonitrile], the remaining binding at 1 µM in test [1] turned out to be 0%; in test [2] it was 72%; in test [3], 0.45%; in test [4], 100%; in test [5], 100%; in test [6] it was 14%.

As for `CCNc1nc(Nc2ccc(C(=O)N3CCC(N4CCOCC4)CC3)cc2OC)nc2[nH]cc(C(F)(F)F)c12` [Example 104, (4-((4-(ethylamino)-5-(trifluoromethyl)-7H-pyrrolo[2,3-d]pyrimidine-2-yl)amino)-3-methoxyphenyl)(4-morpholinopiperidine-1-yl)methanone], the remaining binding at 1 µM in test [1] stood at 1.7%; in test [2] it was 51%; in test [3], 7.5%; in test [4], 100%; in test [5], 100%; in test [6], 100%.
